Laboratory results from PubChem BioAssay (NCI).
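These data come from cells grown in 96-well plates and exposed to compound for 48 hours at five concentrations. At the TGI there is no net growth.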

Key:
Assay in all cases: NCI anticancer screen, dose series, 48 h
[1] = test system: 786-0 renal
[2] = test system: A498 renal
[3] = test system: A549 NSCLC
[4] = test system: ACHN renal
[5] = test system: BT-549 breast
[6] = test system: CAKI-1 renal
[7] = test system: CCRF-CEM leukemia
[8] = test system: COLO 205 colon
[9] = test system: DU-145 prostate
[10] = test system: EKVX NSCLC
[11] = test system: HCC-2998 colon
[12] = test system: HCT-116 colon
[13] = test system: HCT-15 colon
[14] = test system: HL-60(TB) leukemia
[15] = test system: HOP-62 NSCLC
[16] = test system: HOP-92 NSCLC
[17] = test system: HS 578T breast
[18] = test system: HT29 colon
[19] = test system: IGROV1 ovarian
[20] = test system: K-562 leukemia
[21] = test system: KM12 colon
[22] = test system: LOX IMVI melanoma
[23] = test system: M14 melanoma
[24] = test system: MALME-3M melanoma
[25] = test system: MCF7 breast
[26] = test system: MDA-MB-435
[27] = test system: MDA-N
[28] = test system: MOLT-4 leukemia
[29] = test system: NCI-H226 lung
[30] = test system: NCI-H23 lung
[31] = test system: NCI-H460 lung
[32] = test system: NCI-H522 lung
[33] = test system: NCI/ADR-RES ovarian
[34] = test system: OVCAR-3 ovarian
[35] = test system: OVCAR-4 ovarian
[36] = test system: OVCAR-5 ovarian
[37] = test system: OVCAR-8 ovarian
[38] = test system: PC-3 prostate
[39] = test system: RPMI-8226 leukemia
[40] = test system: RXF 393 renal
[41] = test system: SF-268 CNS
[42] = test system: SF-295 CNS
[43] = test system: SF-539 CNS
[44] = test system: SK-MEL-2 melanoma
[45] = test system: SK-MEL-28 melanoma
[46] = test system: SK-MEL-5 melanoma
[47] = test system: SN12C renal
[48] = test system: SNB-19 CNS
[49] = test system: SNB-75 CNS
[50] = test system: SR leukemia
[51] = test system: SW-620 colon
[52] = test system: T-47D breast
[53] = test system: TK-10 renal
[54] = test system: U251 CNS
[55] = test system: UACC-257 melanoma
[56] = test system: UACC-62 melanoma
[57] = test system: UO-31 renal

Measured: TGI

O=c1[nH]nc(Cc2ccccc2)[nH]1
> 100 µM: all assays above
